Reference: patent publication US20040002479A1, “Peptide analogues and uses thereof” (priority 2002, published 2004)

Assay: Hydroxyapatite assay (hydroxyapatite adsorption chromatography, bone-targeting potential)
Format: physicochemical
Settings: corrected K=(retention time-void time)/void; TSK-Gel HA 1000 HPLC column; linear gradient 10 mM to 500 mM sodium phosphate, 0.15 N NaCl, pH 6.8
Method: Hydroxyapatite is the principal mineral component of bone. Hydroxyapatite adsorption chromatography is used as an assay to evaluate the bone-targeting potential of both individual bone-targeting moieties (“monomers”) and of pharmaceuticals incorporating bone-targeting groups.
Method: The rentention time of a test compound is measured using a linear gradient from 10 mM sodium phosphate, 0.15 N NaCl, pH=6.8 to 500 mM sodium phosphate, 0.15 N NaCl, […] on a TSK-Gel HA 1000 high pressure liquid chromatography column (7.5 mm×75 mm). The rentention time of the compound is expressed in terms of K=(retention time-void time)/void. This K value is corrected using two reference compounds to correct from inter-column and inter-system variation to obtain a K′ value.
Reference Compounds: K′ values were determined for known bone targeted compounds, the bisphosphonate, alendronate and tetracycline.

NCCCC(O)(P(=O)(O)O)P(=O)(O)O [Alendronate, alendronate]
K′ value: 3.7
